# Assay results: ChEMBL document CHEMBL2169843 (J Med Chem, 2012)
# Molecular target: Sigma non-opioid intracellular receptor 1 (Cavia porcellus, UniProt Q60492)
# Assay: Displacement of [3H]-(+)-pentazocine from sigma-1 receptor in guinea pig brain homogenates
# Format: tissue-based
# Sigma non-opioid intracellular receptor 1, sequence (Q60492 whole entry): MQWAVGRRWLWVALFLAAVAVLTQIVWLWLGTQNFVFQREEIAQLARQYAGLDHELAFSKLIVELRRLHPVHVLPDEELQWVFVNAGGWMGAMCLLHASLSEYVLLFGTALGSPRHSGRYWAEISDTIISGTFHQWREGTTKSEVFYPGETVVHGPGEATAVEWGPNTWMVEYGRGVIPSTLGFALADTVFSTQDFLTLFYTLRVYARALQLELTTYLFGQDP
structure (smiles),measurement,value
CCC1(c2ccccc2)OCCC(CCN)O1 (racemic),Ki,> 10000 nM
CC(C)(C)[C@]1(c2ccccc2)OCC[C@H](CCN)O1,Ki,> 10000 nM
CC[C@@]1(c2ccccc2)OCC[C@@H](CCN)O1,Ki,> 10000 nM
CC(C)(C)[C@]1(c2ccccc2)OCC[C@H](CCNCc2ccccc2)O1,Ki,253 nM
CC[C@]1(c2ccccc2)OCC[C@H](CCNCc2ccccc2)O1,Ki,28 nM
NCCC1CCOC(c2ccccc2)O1 (racemic),Ki,> 10000 nM
CC[C@@]1(c2ccccc2)OCC[C@@H](CCNCc2ccccc2)O1,Ki,20 nM
C[C@]1(c2ccccc2)OCC[C@H](CCN)O1,Ki,> 10000 nM
CCC[C@@]1(c2ccccc2)OCC[C@@H](CCN)O1,Ki,> 10000 nM
C[C@@]1(c2ccccc2)OCC[C@@H](CCN)O1,Ki,> 10000 nM
NCC[C@H]1CCO[C@@H](c2ccccc2)O1,Ki,> 10000 nM
CC(C)(C)[C@@]1(c2ccccc2)OCC[C@@H](CCN)O1,Ki,> 10000 nM
C[C@@]1(c2ccccc2)OCC[C@@H](CCNCc2ccccc2)O1,Ki,17 nM
CCC[C@]1(c2ccccc2)OCC[C@H](CCNCc2ccccc2)O1,Ki,136 nM
CC[C@]1(c2ccccc2)OCC[C@H](CCN)O1,Ki,> 10000 nM
CCC[C@]1(c2ccccc2)OCC[C@H](CCN)O1,Ki,> 10000 nM
NCC[C@@H]1CCO[C@H](c2ccccc2)O1,Ki,> 10000 nM
C[C@]1(c2ccccc2)OCC[C@H](CCNCc2ccccc2)O1,Ki,11 nM
c1ccc(CNCC[C@H]2CCO[C@@H](c3ccccc3)O2)cc1,Ki,50 nM
c1ccc(CNCC[C@@H]2CCO[C@H](c3ccccc3)O2)cc1,Ki,6 nM
CC(C)(C)[C@@]1(c2ccccc2)OCC[C@@H](CCNCc2ccccc2)O1,Ki,128 nM
CCC[C@@]1(c2ccccc2)OCC[C@@H](CCNCc2ccccc2)O1,Ki,72 nM
